Data reported in patent publication US5886207A, “Optically active compound of flubrocythrinate, a process for preparing the same” (Shanghai Zhongxi Pharmaceutical Co. Ltd., priority 1994, dated 1999).

How the values were obtained:
Format in all cases: in vivo
[1] = tested on: tetranychus telarius Linnaeus; assay: Laboratory toxicity test against tetranychus telarius Linnaeus (Pasting Method); settings: for LC50 / LC90: mature female mites, glass slide immersion 5 seconds, time 24 (hour); for times as toxic as compound I against tetranychus telarius Linnaeus: relative to compound I, from Table 1
Text: 1. Laboratory toxicity test against tetranychus telarius Linnaeus
(1) Method of manipulation: (Pasting Method)
Take the robust mature female mites, and paste the back of the mite on a piece of glass with a transparent adhesive tape. Every piece of glass pasted with 40 mites, and three pieces of glasses for each concentration, each insecticide repeated three times at five concentration. […] Immerse the above glasses in a insecticidal solution of specified concentration for 5 seconds and take out from the solution. Use a piece of absorbent paper to absorb the surplus insecticidal solution, transfer the above treated glasses to a culture dish previously fitted with a wetted cotton wool. […] Standard for death judgement: use a needle to move the body of the mite, wholly inflexible judged as death.

[2] = tested on: wheat aphid; assay: Laboratory toxicity test against wheat aphid (Topic application method); settings: for times as toxic as compound I against wheat aphid: relative to compound I, from Table 2; for LD50: third instar larva, topical 0.083 μl in acetone, 27° C., 48 hours
Experimental: (§1) 2. Laboratory toxicity test against wheat aphid (1) Method of manipulation (Topic application method) Weigh third instar larva on a swift electronic balance to obtain 8-18 mg/larva, and 0.083 μl of the insecticide solution in acetone at specified concentration with a microsyringe to the dorsal thorax of the larva, and then transfer the larva into a finger-type tube charged with artificial fodder, each tube for one larva, each concentration for 30 tubes, each insecticide run at 5 concentrations, and repeat 3 times. Place the tubes in a thermostat oven at 27° C. for 48 hours, and inspect the number of dead larva. Standard for death judgement: judge the wholly inflexible test aphid as death.

[3] = tested on: tetranychus telarius Linnaeus and wheat aphid; assay: Overall comparison of efficacy and dosage with compound I from Tables 1 and 2; settings: Tables 1 and 2, in words
Text: Take the robust mature female mites, and paste the back of the mite on a piece of glass with a transparent adhesive tape. Every piece of glass pasted with 40 mites, and three pieces of glasses for each concentration, each insecticide repeated three times at five concentration. […] Immerse the above glasses in a insecticidal solution of specified concentration for 5 seconds and take out from the solution. Use a piece of absorbent paper to absorb the surplus insecticidal solution, transfer the above treated glasses to a culture dish previously fitted with a wetted cotton wool. The culture dish is kept in a thermostat oven at 28° C. for 48 hours, and inspect the number of dead mites under binocular dissecteined microscope. Standard for death judgement: use a needle to move the body of the mite, wholly inflexible judged as death.
as §1, with “Weigh” for “2. Laboratory toxicity test against wheat aphid (1) Method of manipulation (Topic application method) Weigh”
The compound A and Ib are 2.11 times and 1.78 times as toxic as compound I against tetranychus telarius Linnaeus, and are 1.95 times and 1.88 times as toxic as compound I against wheat aphid respectively. Therefore compound Ia has the preferred effect, and the dosage needed is the lowest; the next one are A and compound Ib.

SMILES | LC50 [1] | LC90 [1] | times as toxic as compound I against tetranychus telarius Linnaeus [1] | times as toxic as compound I against wheat aphid [2] | LD50 [2] | dosage compared with compound I [3] | efficacy compared with compound I [3]
CC(C)[C@H](C(=O)O[C@@H](C#N)c1cccc(Oc2ccc(Br)cc2)c1)c1ccc(OC(F)F)cc1 [Ib, (R)-α-Cyano-3-(4-bromophenoxy)benzyl-(S)-2-(4-difluoromethoxyphenyl)-3-methylbutyrate] | 12 ppm | 130 ppm | 1.78 times | 1.88 times | 0.000385 μg/larva | lower than that of compound I | apparently better than compound I
CC(C)[C@@H](C(=O)O[C@H](C#N)c1cccc(Oc2ccc(Br)cc2)c1)c1ccc(OC(F)F)cc1 [Ic] | 220 ppm | 2580 ppm | – | – | 0.009252 μg/larva | – | –
CC(C)C(C(=O)OC(C#N)c1cccc(Oc2ccc(Br)cc2)c1)c1ccc(OC(F)F)cc1 (stereo not drawn) [compound I, α-cyano-3-(4-bromophenoxy) benzyl-2-(4-difluoromethoxyphenyl)-3-methylbutyrate, reference compound] | 19 ppm | 232 ppm | – | – | 0.0007247 μg/larva | – | –
CC(C)[C@H](C(=O)O[C@H](C#N)c1cccc(Oc2ccc(Br)cc2)c1)c1ccc(OC(F)F)cc1 [Ia, (S)-α-Cyano-3-(4-bromophenoxy)benzyl-(S)-2-(4-difluoromethoxyphenyl)-3-methylbutyrate] | 4 ppm | 52 ppm | 4.46 times | 4.06 times | 0.0001783 μg/larva | lower than that of compound I | apparently better than compound I
CC(C)[C@H](C(=O)O[C@H](C#N)c1cccc(Oc2ccc(Br)cc2)c1)c1ccc(OC(F)F)cc1 (relative stereo) [A] | 10 ppm | 110 ppm | 2.11 times | 1.95 times | 0.0003712 μg/larva | lower than that of compound I | apparently better than compound I
CC(C)[C@@H](C(=O)O[C@@H](C#N)c1cccc(Oc2ccc(Br)cc2)c1)c1ccc(OC(F)F)cc1 [Id, (R)-α-Cyano-3-(4-bromophenoxy)benzyl (R)-2-(4-difluoromethoxyphenyl)-3-methylbutyrate] | 1200 ppm | 8000 ppm | – | – | 0.05047 μg/larva | – | –
